The values below come from patent US20230382951A1, “BRAIN PENETRATING PEPTIDES” (BOARD OF REGENTS, THE UNIVERSITY OF TEXAS SYSTEM, priority 2020, published 2023).

The test system of the assay is hCMEC/D3 cells. The settings on record: third round of biopanning.

Experimental: CX7C-presenting M13 phage biopanning against hCMEC/D3 cells. A M13 phage CX7C library was used to pan against established BBB model hCMEC/D3 in vitro to identify potential brain-penetrating peptides. hCMEC/D3 cells (CELLutions Biosystems Inc.) were cultured in EndoGRO medium (Millipore, #SCME004) on Collagen I (Fisher Scientific, #44310001) coated Culture Ware (150 μg/ml, coated for at least 1 h at 37° C.)^110. […] To establish the cell monolayer on the transwell plate setup, hCMEC/D3 cells (passage 27-30) were seeded on a pre-coated collagen I (100 μg/ml for 3 h) coated 12-well transwell plate (Corning, #3401) at a density of 1.5-2.0*10^5 cells/cm^2 for 12-15 days^49. Transepithelial electrical resistance measurements and permeability assay with small tracer molecule sodium fluorescein were used to monitor the tightness of hCMEC/D3 monolayer. Prior to biopanning, hCMEC/D3 cells were incubated in fetal bovine serum depleted medium for 1 h at 37° C., and then 10^11 plaque forming units (pfu) of M13 phage CX7C library (NEB, #E8120S) was added to the donor compartment of the transwell and incubated for 1 h at 37° C. […]
The NGS data from two replicates of MiSeq run were analyzed on Stampede, a supercomputer run on Texas Advanced Computing Center at UT-Austin. First, to confirm the sequence quality and trim the low-quality sequence reads, fastqc and fastx_toolkit were used on the dataset. […]

Consider NAGHLSQ [Pep-1], for which the “frequency relative to second most frequent peptide Pep-2” value is recorded as “approximately five-fold higher”.
